Measured values taken from ChEMBL document CHEMBL1221170, “Sensing with TRP channels” (Nat Chem Biol, 2005).

The molecules below were run against Transient receptor potential cation channel subfamily A member 1 (Homo sapiens) (UniProt O75762) (assay: Agonist activity at TRPA1).
Format: functional

Chain of Transient receptor potential cation channel subfamily A member 1 (Homo sapiens) (O75762 whole entry): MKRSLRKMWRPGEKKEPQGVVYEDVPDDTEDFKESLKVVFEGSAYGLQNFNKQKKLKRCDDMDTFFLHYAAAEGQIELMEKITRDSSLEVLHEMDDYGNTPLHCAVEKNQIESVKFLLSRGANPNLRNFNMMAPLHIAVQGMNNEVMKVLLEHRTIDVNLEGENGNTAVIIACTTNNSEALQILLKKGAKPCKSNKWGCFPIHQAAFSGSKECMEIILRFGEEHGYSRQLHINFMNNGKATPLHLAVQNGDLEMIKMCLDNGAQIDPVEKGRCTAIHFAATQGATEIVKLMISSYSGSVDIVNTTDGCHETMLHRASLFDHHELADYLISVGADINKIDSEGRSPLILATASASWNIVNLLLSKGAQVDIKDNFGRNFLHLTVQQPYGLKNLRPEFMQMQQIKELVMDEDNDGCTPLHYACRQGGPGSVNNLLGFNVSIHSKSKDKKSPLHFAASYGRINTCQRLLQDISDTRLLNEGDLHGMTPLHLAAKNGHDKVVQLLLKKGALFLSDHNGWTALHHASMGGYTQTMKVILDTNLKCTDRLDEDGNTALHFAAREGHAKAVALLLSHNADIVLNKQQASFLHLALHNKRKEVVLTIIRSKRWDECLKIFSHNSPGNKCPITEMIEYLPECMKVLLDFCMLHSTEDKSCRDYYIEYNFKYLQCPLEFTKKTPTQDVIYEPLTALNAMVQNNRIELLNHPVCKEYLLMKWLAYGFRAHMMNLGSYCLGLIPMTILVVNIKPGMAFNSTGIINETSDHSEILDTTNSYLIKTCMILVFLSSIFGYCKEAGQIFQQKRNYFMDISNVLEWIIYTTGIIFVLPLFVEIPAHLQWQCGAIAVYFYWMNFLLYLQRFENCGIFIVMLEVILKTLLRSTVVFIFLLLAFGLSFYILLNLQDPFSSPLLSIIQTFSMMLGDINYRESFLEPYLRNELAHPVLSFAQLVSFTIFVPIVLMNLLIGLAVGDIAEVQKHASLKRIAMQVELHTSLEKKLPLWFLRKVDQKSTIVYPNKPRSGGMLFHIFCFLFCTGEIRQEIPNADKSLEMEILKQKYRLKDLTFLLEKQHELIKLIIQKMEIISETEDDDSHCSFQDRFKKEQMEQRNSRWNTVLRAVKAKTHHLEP

Which Activity does the source give for `O=C1NC(c2cccc([N+](=O)[O-])c2)=CCN1c1ccccc1O` here?
Its Activity is 0.099 µM.

For `CCCCCc1cc(O)c2c(c1)OC(C)(C)[C@@H]1CCC(C)=C[C@@H]21`, which Activity is on record?
The Activity was 10 µM.

How did the Activity turn out when `C=CCS[S+]([O-])CC=C` (centres undefined) was run?
The Activity was 10 µM.

How did the Activity turn out when `O=C/C=C/c1ccccc1` was run?
The Activity was 10 µM.

The molecules below were run against Transient receptor potential cation channel subfamily V member 4 (Homo sapiens) (UniProt Q9HBA0) (assay: Agonist activity at TRPV4).
Chain of Transient receptor potential cation channel subfamily V member 4 (Homo sapiens) (Q9HBA0 whole entry): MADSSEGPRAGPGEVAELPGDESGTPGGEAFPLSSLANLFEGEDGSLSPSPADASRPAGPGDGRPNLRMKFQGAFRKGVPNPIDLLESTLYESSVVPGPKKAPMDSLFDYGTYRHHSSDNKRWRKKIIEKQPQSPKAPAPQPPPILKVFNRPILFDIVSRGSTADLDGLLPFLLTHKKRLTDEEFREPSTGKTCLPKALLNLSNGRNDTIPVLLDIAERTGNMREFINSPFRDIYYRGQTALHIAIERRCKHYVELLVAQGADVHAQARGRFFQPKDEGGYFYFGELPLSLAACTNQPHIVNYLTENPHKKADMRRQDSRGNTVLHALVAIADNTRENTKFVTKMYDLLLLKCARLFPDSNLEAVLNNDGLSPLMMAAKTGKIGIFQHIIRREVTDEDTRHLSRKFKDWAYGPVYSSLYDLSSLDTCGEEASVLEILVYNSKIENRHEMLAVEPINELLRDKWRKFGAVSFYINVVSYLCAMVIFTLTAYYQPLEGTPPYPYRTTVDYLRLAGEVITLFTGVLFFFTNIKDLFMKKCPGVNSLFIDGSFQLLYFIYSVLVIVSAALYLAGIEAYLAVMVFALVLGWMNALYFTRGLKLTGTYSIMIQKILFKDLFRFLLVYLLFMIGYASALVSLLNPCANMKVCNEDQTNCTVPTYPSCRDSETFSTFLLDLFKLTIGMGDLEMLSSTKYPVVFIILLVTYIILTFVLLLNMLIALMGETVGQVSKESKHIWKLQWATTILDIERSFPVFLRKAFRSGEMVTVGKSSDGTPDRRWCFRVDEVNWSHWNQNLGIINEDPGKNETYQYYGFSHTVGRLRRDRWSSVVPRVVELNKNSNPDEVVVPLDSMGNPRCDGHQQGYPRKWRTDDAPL
Format: functional

How did the Activity turn out when `CCCCC/C=C/C/C=C/C/C=C/CC1OC1CCCC(=O)O` (centres undefined) was run?
Its Activity is 0.01 µM.

For `CCCCCCCCCC(=O)O[C@H]1[C@H](C)[C@]2(O)[C@H](C=C(CO)C[C@@]3(O)C(=O)C(C)=C[C@H]23)[C@H]2C(C)(C)[C@@]12OC(=O)CCCCCCCCC`, which Activity is on record?
The Activity was 0.099 µM.

These molecules were tested against Transient receptor potential cation channel subfamily M member 8 (Homo sapiens) (UniProt Q7Z2W7) (assay: Agonist activity at TRPM8).
Chain of Transient receptor potential cation channel subfamily M member 8 (Homo sapiens) (Q7Z2W7 whole entry, looked up): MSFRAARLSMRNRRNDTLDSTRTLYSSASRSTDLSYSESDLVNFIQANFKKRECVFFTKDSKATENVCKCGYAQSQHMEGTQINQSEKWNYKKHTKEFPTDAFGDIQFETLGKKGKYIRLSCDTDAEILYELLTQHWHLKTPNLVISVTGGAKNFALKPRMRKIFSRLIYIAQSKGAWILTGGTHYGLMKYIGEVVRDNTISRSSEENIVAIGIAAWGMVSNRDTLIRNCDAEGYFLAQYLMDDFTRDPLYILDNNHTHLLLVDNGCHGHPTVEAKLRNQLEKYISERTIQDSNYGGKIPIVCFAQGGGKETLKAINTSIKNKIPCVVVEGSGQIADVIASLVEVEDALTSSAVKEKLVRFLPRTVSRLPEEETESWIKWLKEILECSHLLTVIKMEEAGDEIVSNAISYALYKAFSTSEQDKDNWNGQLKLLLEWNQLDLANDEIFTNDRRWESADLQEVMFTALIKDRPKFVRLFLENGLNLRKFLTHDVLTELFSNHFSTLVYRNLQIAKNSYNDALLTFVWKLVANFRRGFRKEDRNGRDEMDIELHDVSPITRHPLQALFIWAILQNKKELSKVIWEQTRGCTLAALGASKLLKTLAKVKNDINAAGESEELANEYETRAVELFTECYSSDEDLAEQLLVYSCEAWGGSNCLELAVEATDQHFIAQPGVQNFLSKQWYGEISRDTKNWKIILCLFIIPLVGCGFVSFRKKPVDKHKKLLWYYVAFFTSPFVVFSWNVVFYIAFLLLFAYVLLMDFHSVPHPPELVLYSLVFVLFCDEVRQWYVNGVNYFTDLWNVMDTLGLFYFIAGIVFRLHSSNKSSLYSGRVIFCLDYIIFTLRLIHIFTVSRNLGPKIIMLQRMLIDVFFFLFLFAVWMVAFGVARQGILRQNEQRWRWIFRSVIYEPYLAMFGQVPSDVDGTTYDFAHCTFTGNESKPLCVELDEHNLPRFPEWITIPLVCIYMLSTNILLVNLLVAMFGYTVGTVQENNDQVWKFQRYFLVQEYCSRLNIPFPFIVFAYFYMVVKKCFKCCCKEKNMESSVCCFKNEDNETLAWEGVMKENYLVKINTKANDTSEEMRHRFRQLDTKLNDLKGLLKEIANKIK
Format: functional

With `O=C1NC(c2cccc([N+](=O)[O-])c2)=CCN1c1ccccc1O` as the molecule, how does the Activity read?
The Activity was 0.099 µM.

How did the Activity turn out when `CC12CCC(CC1)C(C)(C)O2` was run?
The Activity was 100 µM.

For `CC1CCC(C(C)C)C(O)C1` (centres undefined), which Activity is on record?
Its Activity is 10 µM.
